Experiment: Serum concentration and pharmacokinetics of SCI after oral gavage in Wistar rats
Format: in vivo, Wistar rat
Description: All procedures were performed according to the Local Ethical Committee of Experiments on Animals guidelines in Olsztyn, Poland. The experiment was conducted in the same way as described by Antonowski et al.. Briefly, the experiment was performed on male Wistar rats (n = 6). Rats were maintained in ventilated rooms under a standard day photoperiod (12:12 h light–dark) as well as with lights on from 700 to 1900 h at 21 °C. All rats had free access to food and water. At 42 days of age, rats were randomized into experimental groups (Table 1 and Table 4).
Before the administration of cyclitol (10 mg/kg), the rats were fasting for 12 h (Table 1). […] Access to water was unlimited during the experiments. The study group (n = 6) was divided into two subgroups (n = 3 rats per subgroup). This practice allows for the use of only 6 rats for the entire experiment in accordance with the 3 Rs principle. Rats received the compound at a dose of 10 mg/kg body weight. Rats were weighed before starting the compound administration. Cyclitol was administered to the rats from the study group using a stainless-steel gastric tube with a ball tip (manufacturer—Agnthos, curved gastric tube, 16G, 3 mm tip, 75 mm). Cyclitol was dissolved in distilled water to a maximum volume of 1 mL. The prepared solution was administered to the animal.
Blood samples were collected into Eppendorf tubes and were centrifuged at 2500× g for 10 min at 8 °C the following day. Blood was harvested from the tail at a specific time. […] Serum was stored at −80 °C for subsequent analyses.
The analysis is described in detail by Antonowski and co-workers. Briefly, the first step was to remove the protein, then concentrate the sample in a speed vacuum evaporator to dryness. Next, samples were analyzed using the high-resolution gas chromatography method. We used a gas chromatograph GC2010Plus (Shimadzu, Tokyo, Japan) with a capillary column ZEBRON ZB-1 (15 m length, 0.25 mm diameter, and 0.1 μm film thickness, Phenomenex, Torrance, CA, USA). Helium was used as a carrier gas (at a flow rate of 1.18 mL min^−1). […] Finally, scyllo-inositol was quantified by using a standard.
The PK parameters were calculated using PK Solver. PKSolver is an add-in program for pharmacokinetic and pharmacodynamic data analysis […]. […] The area under the drug concentration–time curve from time zero to the time of the last quantifiable concentration (AUClast) was calculated using the trapezoidal rule. The volume over which the drug was distributed (Vd) and clearance (CL) were conducted by PK Solver. […] Nevertheless, we estimated K by log-linear regression analysis on data points on the terminal log-linear phase. Noncompartmental analysis is generally the preferred methodology to use in that it requires fewer assumptions than model-based approaches. We presented the results for individual rats, subgroups of rats, and for all subjects studied. The content of scyllo-inositol was calculated from the standard curves of appropriate components. To determine the terminal phase, […] was sufficient.
An analysis of all parameters was carried out with GraphPad Prism software (Version 10 Graph Pad Software Inc., La Jolla, CA, USA). Data are expressed as means ± SEM or individual data. Briefly, AUClast was calculated using the trapezoidal method. The T0.5 of oral administration was calculated as 0.693/K.

[1] = Mean of rats 1–3 ± SEM, serum, oral 10 mg/kg

Compound: O[C@H]1[C@H](O)[C@@H](O)[C@H](O)[C@@H](O)[C@@H]1O [SCI, scyllo-inositol]
- CL [1]: 0.112 ± 0.008 (95%CI: 0.145–0.079) L/h
- Vd [1]: 4.182 ± 2.287 (95%CI: 14.02–(−5.656)) L
- CL (Mean of rats 4–6 ± SEM, serum, oral 10 mg/kg): 0.216 ± 0.055 (95%CI: 0.451–(−0.02)) L/h
- CL (Rat No 1, serum, oral 10 mg/kg): 0.1 L/h
- Vd (Rat No 1, serum, oral 10 mg/kg): 0.039 L
- CL (Rat No 2, serum, oral 10 mg/kg): 0.11 L/h
- Vd (Rat No 2, serum, oral 10 mg/kg): 7.93 L
- CL (Rat No 3, serum, oral 10 mg/kg): 0.126 L/h
- Vd (Rat No 3, serum, oral 10 mg/kg): 4.578 L
- CL (Rat No 4, serum, oral 10 mg/kg): 0.325 L/h
- Vd (Rat No 4, serum, oral 10 mg/kg): 0.358 L
- CL (Rat No 5, serum, oral 10 mg/kg): 0.16 L/h
- Vd (Rat No 5, serum, oral 10 mg/kg): 0.9967 L
- CL (Rat No 6, serum, oral 10 mg/kg): 0.162 L/h
- Vd (Rat No 6, serum, oral 10 mg/kg): 0.566 L
- Concentration of SCI in serum (Rat No. 1, time 0 h, oral 10 mg/kg): BLQ
- Concentration of SCI in serum (Rat No. 1, time 0.25 h, oral 10 mg/kg): BLQ
- Concentration of SCI in serum (Rat No. 1, time 12 h, oral 10 mg/kg): BLQ
- Concentration of SCI in serum (Rat No. 1, time 24 h, oral 10 mg/kg): BLQ
- Concentration of SCI in serum (Rat No. 2, time 0 h, oral 10 mg/kg): BLQ
- Concentration of SCI in serum (Rat No. 2, time 0.25 h, oral 10 mg/kg): BLQ
- Concentration of SCI in serum (Rat No. 2, time 12 h, oral 10 mg/kg): BLQ
- Concentration of SCI in serum (Rat No. 2, time 24 h, oral 10 mg/kg): BLQ
- Concentration of SCI in serum (Rat No. 3, time 0 h, oral 10 mg/kg): BLQ
- Concentration of SCI in serum (Rat No. 3, time 0.25 h, oral 10 mg/kg): BLQ
- Concentration of SCI in serum (Rat No. 3, time 12 h, oral 10 mg/kg): BLQ
- Concentration of SCI in serum (Rat No. 3, time 24 h, oral 10 mg/kg): BLQ
- Concentration of SCI in serum (Rat No. 4, time 36 h, oral 10 mg/kg): BLQ
- Concentration of SCI in serum (Rat No. 4, time 48 h, oral 10 mg/kg): BLQ
- Concentration of SCI in serum (Rat No. 5, time 36 h, oral 10 mg/kg): BLQ
- Concentration of SCI in serum (Rat No. 5, time 48 h, oral 10 mg/kg): BLQ
- Concentration of SCI in serum (Rat No. 6, time 36 h, oral 10 mg/kg): BLQ
- Concentration of SCI in serum (Rat No. 6, time 48 h, oral 10 mg/kg): BLQ
- concentration at 0 min (male, Wistar, rat, serum, oral, 10 mg/kg, Mean concentration of SCI in serum, at the point of administration (0 min), rats 1–3): 0 ng/mL
- concentration at 0.5 h (male, Wistar, rat, serum, po, 10 mg/kg, Concentration of SCI in serum, Rat No. 1, oral 10 mg/kg): 1000 ng/mL
- concentration at 1 h (male, Wistar, rat, serum, po, 10 mg/kg, Concentration of SCI in serum, Rat No. 1, time 1 h, oral 10 mg/kg): 1600 ng/mL
- concentration at 1.5 h (male, Wistar, rat, serum, po, 10 mg/kg, Concentration of SCI in serum, Rat No. 1, time 1.5 h, oral 10 mg/kg): 7200 ng/mL
- concentration at 0.5 h (male, Wistar, rat, serum, po, 10 mg/kg, Concentration of SCI in serum, Rat No. 2, oral 10 mg/kg): 4600 ng/mL
- concentration at 1 h (male, Wistar, rat, serum, po, 10 mg/kg, Concentration of SCI in serum, Rat No. 2, time 1 h, oral 10 mg/kg): 5600 ng/mL
- concentration at 1.5 h (male, Wistar, rat, serum, po, 10 mg/kg, Concentration of SCI in serum, Rat No. 2, time 1.5 h, oral 10 mg/kg): 6200 ng/mL
- concentration at 0.5 h (male, Wistar, rat, serum, po, 10 mg/kg, Concentration of SCI in serum, Rat No. 3, oral 10 mg/kg): 5600 ng/mL
- concentration at 1 h (male, Wistar, rat, serum, po, 10 mg/kg, Concentration of SCI in serum, Rat No. 3, time 1 h, oral 10 mg/kg): 6800 ng/mL
- concentration at 1.5 h (male, Wistar, rat, serum, po, 10 mg/kg, Concentration of SCI in serum, Rat No. 3, time 1.5 h, oral 10 mg/kg): 4400 ng/mL
- concentration at 2 h (male, Wistar, rat, serum, po, 10 mg/kg, Concentration of SCI in serum, Rat No. 4, time 2 h, oral 10 mg/kg): 3200 ng/mL
- concentration at 4 h (male, Wistar, rat, serum, po, 10 mg/kg, Concentration of SCI in serum, Rat No. 4, time 4 h, oral 10 mg/kg): 600 ng/mL
- concentration at 8 h (male, Wistar, rat, serum, po, 10 mg/kg, Concentration of SCI in serum, Rat No. 4, time 8 h, oral 10 mg/kg): 400 ng/mL
- concentration at 2 h (male, Wistar, rat, serum, po, 10 mg/kg, Concentration of SCI in serum, Rat No. 5, time 2 h, oral 10 mg/kg): 3800 ng/mL
- concentration at 4 h (male, Wistar, rat, serum, po, 10 mg/kg, Concentration of SCI in serum, Rat No. 5, time 4 h, oral 10 mg/kg): 6100 ng/mL
- concentration at 8 h (male, Wistar, rat, serum, po, 10 mg/kg, Concentration of SCI in serum, Rat No. 5, time 8 h, oral 10 mg/kg): 200 ng/mL
- concentration at 2 h (male, Wistar, rat, serum, po, 10 mg/kg, Concentration of SCI in serum, Rat No. 6, time 2 h, oral 10 mg/kg): 5400 ng/mL
- concentration at 4 h (male, Wistar, rat, serum, po, 10 mg/kg, Concentration of SCI in serum, Rat No. 6, time 4 h, oral 10 mg/kg): 3600 ng/mL
- concentration at 8 h (male, Wistar, rat, serum, po, 10 mg/kg, Concentration of SCI in serum, Rat No. 6, time 8 h, oral 10 mg/kg): 400 ng/mL
- concentration at 30 min (male, Wistar, rat, serum, po, 10 mg/kg, Mean concentration of SCI in serum, 30 min after oral 10 mg/kg, mean of rats 1–3): 3730 ng/mL
- concentration at 1 h (male, Wistar, rat, serum, po, 10 mg/kg, Mean concentration of SCI in serum, 1 h after oral 10 mg/kg, mean of rats 1–3): 4670 ng/mL
- concentration at 1.5 h (male, Wistar, rat, serum, po, 10 mg/kg, Mean concentration of SCI in serum, 1.5 h after oral 10 mg/kg, mean of rats 1–3): 5930 ng/mL
- concentration at 2 h (male, Wistar, rat, serum, po, 10 mg/kg, Mean concentration of SCI in serum, 2 h after oral 10 mg/kg, mean of rats 4–6): 4130 ng/mL
- concentration at 4 h (male, Wistar, rat, serum, po, 10 mg/kg, Mean concentration of SCI in serum, 4 h after oral 10 mg/kg, mean of rats 4–6): 3430 ng/mL
- concentration at 8 h (male, Wistar, rat, serum, po, 10 mg/kg, Mean concentration of SCI in serum, 8 h after oral 10 mg/kg, mean of rats 4–6): 330 ng/mL
- concentration at 12 h (male, Wistar, rat, serum, po, 10 mg/kg, Mean concentration of SCI in serum, 12 h after oral 10 mg/kg, rats 1–3): 0 ng/mL

— publication PMC12299890 (Pharmaceuticals, 2025)
